Laboratory results published in ChEMBL document CHEMBL3596163, “Discovery of imidazo[1,5-a]pyridines and -pyrimidines as potent and selective RORc inverse agonists” (Bioorg Med Chem Lett, 2015).
pEC50: −log10 of the molar value. Active and inactive are the calls of the source. The rule behind the calls is not given here.

Key:
[1] = system: PBMC; experiment: Cytotoxicity against human PBMC assessed as effect on cell physiology after 48 hrs by CellTiter-Glo assay; assay type: cell-based
[2] = Lipophilicity, log D of the compound at pH 7.4; assay type: physicochemical; settings: buffer
[3] = biological target: T1, Nuclear receptor ROR-alpha (Homo sapiens, UniProt P35398); experiment: Inverse agonist activity at GAL4-fused human RORa expressed in HEK293T cells assessed as suppression of basal transcriptional activity after 20 hrs by dual-glo luciferase reporter gene assay; assay type: cell-based, HEK-293T
T1 sequence (P35398 whole entry): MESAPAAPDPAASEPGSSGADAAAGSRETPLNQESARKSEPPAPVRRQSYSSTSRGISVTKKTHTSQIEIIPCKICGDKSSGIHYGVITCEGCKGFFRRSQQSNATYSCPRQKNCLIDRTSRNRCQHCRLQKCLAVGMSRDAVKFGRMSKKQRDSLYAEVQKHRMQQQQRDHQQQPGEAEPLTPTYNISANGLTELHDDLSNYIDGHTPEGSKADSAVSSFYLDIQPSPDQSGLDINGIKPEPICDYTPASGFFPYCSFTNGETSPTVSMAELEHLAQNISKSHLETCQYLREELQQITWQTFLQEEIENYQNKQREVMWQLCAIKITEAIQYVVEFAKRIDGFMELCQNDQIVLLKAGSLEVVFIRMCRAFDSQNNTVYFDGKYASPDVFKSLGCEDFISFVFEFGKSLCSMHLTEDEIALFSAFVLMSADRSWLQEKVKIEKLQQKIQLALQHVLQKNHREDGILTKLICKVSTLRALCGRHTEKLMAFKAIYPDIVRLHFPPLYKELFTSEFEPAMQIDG

[4] = biological target: T2, Bile acid receptor (Homo sapiens, UniProt Q96RI1); experiment: Agonist activity at GAL4-fused human FXR expressed in HEK293T cells assessed as activation of basal transcriptional activity after 20 hrs by dual-glo luciferase reporter gene assay; assay type: cell-based, HEK-293T
T2 sequence (Q96RI1 whole entry): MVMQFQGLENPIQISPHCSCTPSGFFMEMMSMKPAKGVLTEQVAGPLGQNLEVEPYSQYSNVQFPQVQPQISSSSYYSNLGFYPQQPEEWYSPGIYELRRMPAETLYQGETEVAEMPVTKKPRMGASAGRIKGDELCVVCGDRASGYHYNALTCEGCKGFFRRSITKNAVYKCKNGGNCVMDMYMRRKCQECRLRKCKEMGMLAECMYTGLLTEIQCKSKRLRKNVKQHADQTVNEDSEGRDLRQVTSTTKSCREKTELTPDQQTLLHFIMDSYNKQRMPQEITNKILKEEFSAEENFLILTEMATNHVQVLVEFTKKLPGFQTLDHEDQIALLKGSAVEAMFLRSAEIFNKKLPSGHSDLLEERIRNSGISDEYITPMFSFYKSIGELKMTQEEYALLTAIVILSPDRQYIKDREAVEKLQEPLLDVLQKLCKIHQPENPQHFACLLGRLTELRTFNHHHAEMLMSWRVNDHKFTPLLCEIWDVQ

[5] = biological target: T3, Oxysterols receptor LXR-beta (Homo sapiens, UniProt P55055); experiment: Agonist activity at GAL4-fused human LXRbeta expressed in HEK293T cells assessed as activation of basal transcriptional activity after 20 hrs by dual-glo luciferase reporter gene assay; assay type: cell-based, HEK-293T
T3 sequence (P55055 whole entry): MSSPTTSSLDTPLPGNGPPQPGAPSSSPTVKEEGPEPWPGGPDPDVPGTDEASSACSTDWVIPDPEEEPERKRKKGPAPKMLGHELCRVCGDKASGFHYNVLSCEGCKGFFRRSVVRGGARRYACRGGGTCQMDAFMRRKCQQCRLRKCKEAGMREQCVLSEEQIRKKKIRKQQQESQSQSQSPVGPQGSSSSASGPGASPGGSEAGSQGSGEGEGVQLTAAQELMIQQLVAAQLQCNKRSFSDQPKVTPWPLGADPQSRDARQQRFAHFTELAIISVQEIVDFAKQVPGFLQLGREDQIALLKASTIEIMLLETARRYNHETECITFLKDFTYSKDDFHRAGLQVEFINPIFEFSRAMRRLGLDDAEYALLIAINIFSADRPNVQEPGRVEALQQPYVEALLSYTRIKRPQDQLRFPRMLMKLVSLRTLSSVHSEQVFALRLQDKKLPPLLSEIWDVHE

[6] = biological target: T4, Bile acid receptor (Homo sapiens) (UniProt Q96RI1); experiment: Antagonist activity at GAL4-fused human FXR expressed in HEK293T cells assessed as inhibition of T0901317-induced basal transcriptional activity up to 10 uM after 20 hrs by dual-glo luciferase reporter gene assay; assay type: cell-based; settings: HEK-293T
T4 sequence (whole entry): T2 sequence (Q96RI1 whole entry)

[7] = biological target: T5, Oxysterols receptor LXR-beta (Homo sapiens) (UniProt P55055); experiment: Antagonist activity at GAL4-fused human LXRbeta expressed in HEK293T cells assessed as inhibition of T0901317-induced basal transcriptional activity up to 10 uM after 20 hrs by dual-glo luciferase reporter gene assay; assay type: cell-based; settings: HEK-293T
T5 sequence (whole entry): T3 sequence (P55055 whole entry)

[8] = biological target: T6, Nuclear receptor subfamily 1 group I member 2 (Homo sapiens, UniProt O75469); experiment: Antagonist activity at GAL4-fused human PXR expressed in HEK293T cells assessed as inhibition of T0901317-induced basal transcriptional activity up to 10 uM after 20 hrs by dual-glo luciferase reporter gene assay; assay type: cell-based; settings: hek-293t
T6 sequence (O75469 whole entry): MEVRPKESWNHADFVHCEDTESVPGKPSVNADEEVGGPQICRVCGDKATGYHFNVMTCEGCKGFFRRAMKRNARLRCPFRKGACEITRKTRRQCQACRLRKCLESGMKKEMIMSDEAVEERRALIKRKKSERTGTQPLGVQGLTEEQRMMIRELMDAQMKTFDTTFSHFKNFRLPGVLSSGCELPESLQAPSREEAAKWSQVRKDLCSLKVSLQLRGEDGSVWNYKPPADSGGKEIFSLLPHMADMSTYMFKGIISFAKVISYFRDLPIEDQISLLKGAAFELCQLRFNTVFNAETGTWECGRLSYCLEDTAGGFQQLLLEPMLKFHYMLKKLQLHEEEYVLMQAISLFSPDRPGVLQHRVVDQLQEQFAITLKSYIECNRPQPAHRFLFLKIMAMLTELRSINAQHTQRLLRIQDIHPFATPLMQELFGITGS

[9] = system: PBMC; experiment: Antiinflammatory activity in human PBMC assessed as inhibition of IL-17 production after 48 hrs by Sandwich ELISA; assay type: functional, cell-based
[10] = system: PBMC; experiment: Antiinflammatory activity in human PBMC assessed as inhibition of IL-17 production after 48 hrs by Sandwich ELISA relative to control; assay type: functional

| Compound | pEC50 [1] | logD [2] | pEC50 [3] | pEC50 [4] | pEC50 [5] | inhibition [6] | inhibition [7] | inhibition (INH) [8] | pEC50 [9] | %max [10] [%] |
| --- | --- | --- | --- | --- | --- | --- | --- | --- | --- | --- |
| O=C(O)c1ccc(-c2nc(C(=O)c3c(Cl)cccc3C(F)(F)F)n3ccccc23)cc1 | < 5.00 | 1.5 | < 5.00 | < 5.00 | < 5.00 | inactive | inactive | Not Active | 6.64 | 69 |
| O=C(O)c1ccc(-c2nc(C(=O)c3c(Cl)cccc3C3CC3)n3c2CCCC3)c(F)c1 | < 5.00 | 1.6 | < 5.00 | < 5.00 | < 5.00 | inactive | inactive | Not Active | 6.52 | 72 |
| O=C(O)c1ccc(-c2nc(C(=O)c3c(Cl)cccc3C3CC3)n3cccnc23)cc1O | < 5.00 | 1.5 | < 5.00 | < 5.00 | < 5.00 | inactive | inactive | Not Active | 7.52 | 73 |
| O=C(O)c1ccc(-c2nc(C(=O)c3c(Cl)cccc3C(F)(F)F)n3ccccc23)cc1O | < 5.00 | 2.5 | < 5.00 | < 5.00 | < 5.00 | inactive | inactive | Not Active | 7.77 | 70 |
| O=C(O)c1ccc(-c2nc(C(=O)c3c(Cl)cccc3C(F)(F)F)n3ccccc23)c(F)c1 | < 5.00 | 1.8 | < 5.00 | < 5.00 | < 5.00 | inactive | inactive | Not Active | 6.92 | 63 |
| O=C(O)c1ccc(-c2nc(C(=O)c3c(Cl)cccc3C(F)(F)F)n3c2CCCC3)c(F)c1 | < 5.00 | 1.3 | < 5.00 | < 5.00 | < 5.00 | inactive | inactive | Not Active | 6.64 | 64 |
